Data taken from PubChem BioAssay (NCI).
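Results reflect a 48-hour exposure of cells in 96-well plates to compound at five concentrations. At the GI50, growth is halved. Definition used: TGI = concentration required for complete inhibition of growth.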

Columns and labels:
Test in all cases: growth of human tumour cells (NCI), 48 h
NCI-H23 lung = test system: NCI-H23 lung
NCI-H460 lung = test system: NCI-H460 lung
NCI-H522 lung = test system: NCI-H522 lung
NCI/ADR-RES ovarian = test system: NCI/ADR-RES ovarian
OVCAR-3 ovarian = test system: OVCAR-3 ovarian
OVCAR-4 ovarian = test system: OVCAR-4 ovarian
OVCAR-5 ovarian = test system: OVCAR-5 ovarian
OVCAR-8 ovarian = test system: OVCAR-8 ovarian
PC-3 prostate = test system: PC-3 prostate
RPMI-8226 leukemia = test system: RPMI-8226 leukemia
RXF 393 renal = test system: RXF 393 renal
SF-268 CNS = test system: SF-268 CNS
SF-295 CNS = test system: SF-295 CNS
SF-539 CNS = test system: SF-539 CNS
SK-MEL-2 melanoma = test system: SK-MEL-2 melanoma
SK-MEL-28 melanoma = test system: SK-MEL-28 melanoma
SK-MEL-5 melanoma = test system: SK-MEL-5 melanoma
SK-OV-3 ovarian = test system: SK-OV-3 ovarian
SN12C renal = test system: SN12C renal
SNB-19 CNS = test system: SNB-19 CNS
SNB-75 CNS = test system: SNB-75 CNS
SR leukemia = test system: SR leukemia
SW-620 colon = test system: SW-620 colon
T-47D breast = test system: T-47D breast
TK-10 renal = test system: TK-10 renal
U251 CNS = test system: U251 CNS
UACC-257 melanoma = test system: UACC-257 melanoma
UACC-62 melanoma = test system: UACC-62 melanoma

O=C(Nc1ccccc1C(F)(F)F)c1ccc(NC2=C(Cl)C(=O)N(Cc3ccccc3)C2=O)cc1
GI50 (NCI-H23 lung): 15.6 µM | TGI (NCI-H23 lung): 34.2 µM | GI50 (NCI-H460 lung): 33.2 µM | TGI (NCI-H460 lung): > 100 µM | GI50 (NCI-H522 lung): 40.3 µM | TGI (NCI-H522 lung): > 100 µM | GI50 (NCI/ADR-RES ovarian): 39.3 µM | TGI (NCI/ADR-RES ovarian): > 100 µM | GI50 (OVCAR-3 ovarian): 13.1 µM | TGI (OVCAR-3 ovarian): 76.9 µM | GI50 (OVCAR-4 ovarian): 33.5 µM | TGI (OVCAR-4 ovarian): > 100 µM | GI50 (OVCAR-5 ovarian): 58 µM | TGI (OVCAR-5 ovarian): > 100 µM | GI50 (OVCAR-8 ovarian): 28.7 µM | TGI (OVCAR-8 ovarian): > 100 µM | GI50 (PC-3 prostate): 12.2 µM | TGI (PC-3 prostate): > 100 µM | GI50 (RPMI-8226 leukemia): 8.4 µM | TGI (RPMI-8226 leukemia): > 100 µM | GI50 (RXF 393 renal): 13.8 µM | TGI (RXF 393 renal): 37.7 µM | GI50 (SF-268 CNS): 24.3 µM | TGI (SF-268 CNS): 94.6 µM | GI50 (SF-295 CNS): 31.8 µM | TGI (SF-295 CNS): > 100 µM | GI50 (SF-539 CNS): 23 µM | TGI (SF-539 CNS): 59.5 µM | GI50 (SK-MEL-2 melanoma): 40.6 µM | TGI (SK-MEL-2 melanoma): > 100 µM | GI50 (SK-MEL-28 melanoma): > 100 µM | TGI (SK-MEL-28 melanoma): > 100 µM | GI50 (SK-MEL-5 melanoma): 48.7 µM | TGI (SK-MEL-5 melanoma): > 100 µM | GI50 (SK-OV-3 ovarian): 57.7 µM | TGI (SK-OV-3 ovarian): > 100 µM | GI50 (SN12C renal): 18.6 µM | TGI (SN12C renal): > 100 µM | GI50 (SNB-19 CNS): 36.6 µM | TGI (SNB-19 CNS): > 100 µM | GI50 (SNB-75 CNS): 36.5 µM | TGI (SNB-75 CNS): > 100 µM | GI50 (SR leukemia): 1.85 µM | TGI (SR leukemia): 3.86 µM | GI50 (SW-620 colon): > 100 µM | TGI (SW-620 colon): > 100 µM | GI50 (T-47D breast): > 100 µM | TGI (T-47D breast): > 100 µM | GI50 (TK-10 renal): 17.6 µM | TGI (TK-10 renal): 52.5 µM | GI50 (U251 CNS): 23.5 µM | TGI (U251 CNS): > 100 µM | GI50 (UACC-257 melanoma): 28.7 µM | TGI (UACC-257 melanoma): 82.9 µM | GI50 (UACC-62 melanoma): 18.1 µM | TGI (UACC-62 melanoma): 59.2 µM
